Entries after “also recorded” stand apart in the source; their conditions may differ.
Experiments:
aged C57Bl/6JRj mice [1] = test: Body composition, muscle mass and TA muscle histology in aged mice; type: in vivo, mouse
Experimental: To examine whether a causal relationship could underlie the correlation between SphPC1 and muscle mass and function, it was tested whether inhibition of sphingolipid de novo biosynthesis pathway could protect against age-related muscle dysfunction. Aged (18-month-old) C57Bl/6JRj mice were treated for 5 months on chow diet with myriocin, a specific inhibitor of SPT, the first and rate-limiting enzyme of the sphingolipid de novo synthesis pathway, and whose expression in skeletal muscle was negatively correlated with muscular fitness in BXDs.
Animals. Young (2-month-old) and aged (18-month-old) C57Bl/6JRj mice were purchased from Janvier Labs. EchoMRI measuring the fat and lean body mass, were measured before and after the treatment. The dose of myriocin was 0.4 mg/kg/3 times a week. Myriocin (Enzo Life Sciences, Farmingdale, N.Y.) was first dissolved in DMSO which was then mixed with PBS so that each mouse received 1.5 μL DMSO per injection. Animals were fed on a standard chow diet. All animals were housed in micro-isolator cages in a room illuminated from 7:00 AM to 7:00 PM with ad libitum access to diet and water. All the animal experiments are authorized by animal license 2890.1 and 3341 in Canton of Vaud, Switzerland.
Histology. TA muscles were harvested from anesthetized mice, and immediately embedded in Thermo Scientific™ Shandon™ Cryomatrix™ and frozen in isopentane, cooled in liquid nitrogen, for 1 min before being transferred to dry ice and stored at −80° C. 8 μm cryosections were incubated in 4% PFA for 15 min, washed three times for 10 min with PBS, incubated for antigen retrieval in pH 6.0 citrate buffer for 10 min at 95° C. […] Microscopy images of fluorescence from muscle fibers were analyzed using the ImageJ software. Centralized nuclei percent, minimal Feret diameter and cross-sectional area in TA muscles were determined using the ImageJ software quantification of laminin, dystrophin, and DAPI-stained muscle images from VS120-S6-W slides scanner (Olympus). […] The mean cross-sectional area of muscle fibers was calculated as the average cross-sectional area of 2,000 fibers per from sample. 7-8 mouse samples per condition were used for histological quantification of donor mice. The eMyHC quantification is expressed as proportion of eMyHC positive signal over total TA cross sectional area. Following MuSC injection in CTX injected recipient mice, inflammation representing the regenerative stage of muscle was quantified by ImageJ software as proportion of inflammatory area over total area of the TA muscle cross section. The PAX7-positive cells were quantified as the average number of cells per field of more than 30 randomly chosen fields from a mouse TA. For each quantification, 3 or more mice were used.

aged C57Bl/6JRj mice [2] = test: Novel object recognition in aged mice; type: in vivo, mouse
Experimental: Novel Object Recognition. The novel object recognition task is used to assess recognition memory of mice. It is based on the natural tendency of rodents to explore a novel object by comparison to a familiar one. A habituation phase is realized to familiarize animals to the arena context. 24 hours later, during the acquisition phase (learning phase), two identical objects are placed in the arena and presented to the mouse. During the retention phase (3 hours following the acquisition phase), one of the two familiar objects is replaced by a novel one. Measures of duration and number of exploration for each object are realized, during both acquisition and retention phases, and a Recognition Index is calculated.

[3] = test system: APPSwe-expressing C2C12 myoblasts; test: Proteostat staining of APPSwe-expressing C2C12 myoblasts; type: cell-based, mouse; details: 30 μM MYR for 24 h
Experimental: FIG. 16. Quantitative Proteostat signal normalized over the number of cells in human primary myoblasts from IBM donors (above) and APPSwe-expressing C2C12 myoblasts (below) decreases after treatment with 30 μM MYR for 24 h. Values are expressed as mean±s.e.m. ***P:0.001; ****P:0.0001. Differences between two groups were assessed using Student's two-tailed t-tests (error bars: 95% confidence intervals).

aged C57Bl/6JRj mice [4] = test: Ad libitum locomotion during 10 min in aged mice; type: in vivo, mouse; details: myriocin 0.4 mg/kg i.p. 3 times per week, 5 months
Experimental: FIG. 9. Sphingolipid depletion protects against frailty phenotypes. (a) Distance moved in 10 mins. (b) Average velocity during 10 minutes of observation. (c) Glucose tolerance test. (d) Time exploring familiar and novel objects. (e) Recognition index. Aged (18-month-old) C57BL/6JRj mice were treated with intraperitoneal injections of myriocin (MYR) for 5 months @ 0.4 mg/kg/3 times per week.
Human frailty syndrome is characterized by weakness, decreased walking speed, exhaustion, weight loss, and low physical activity. […] Frailty predicts falls in older people. […] In object recognition test, myriocin treated mice spent more exploring both the familiar object and novel object as compared to their DMSO treated counterparts (FIG. 9d). Although this could be partly attributable to the higher physical activity of myriocin treated mice, the treated mice were more interested in the novel than familiar object as compared to untreated mice.

CCCCCCC(=O)CCCCCCC=CCC(O)C(O)C(N)(CO)C(=O)O (stereo not drawn) [myriocin, 2-Amino-3,4-dihydroxy-2-(hydroxymethyl)-14-oxoicos-6-enoic acid]
lean body mass (aged C57Bl/6JRj mice [1]; myriocin 0.4 mg/kg i.p. 3 times per week, 5 months, EchoMRI before and after treatment): delayed age-dependent decline; also recorded: higher | cross-sectional area of muscle fibers (TA) (aged C57Bl/6JRj mice [1]; myriocin 5 months vs DMSO): larger | number of centralized nuclei in TA muscle (aged C57Bl/6JRj mice [1]; myriocin 5 months vs DMSO): reduced number | gastrocnemius and TA mass (aged C57Bl/6JRj mice [1]; myriocin 5 months vs DMSO treated controls): greater; also recorded: higher | recognition index (aged C57Bl/6JRj mice [2]; myriocin 5 months vs DMSO): higher | time exploring novel object relative to familiar object (aged C57Bl/6JRj mice [2]; myriocin 5 months vs DMSO treated counterparts): more | Proteostat signal normalized over the number of cells [3]: decreases | ad libitum walking speed (average velocity during 10 minutes) (aged C57Bl/6JRj mice [4]): increased | distance travelled ad libitum during 10 min (aged C57Bl/6JRj mice [4]): longer
